Data: publication PMC8251347, “Crystal structure of the ferredoxin reductase component of carbazole 1,9a-dioxygenase from Janthinobacterium sp. J3” (Acta Crystallographica. Section D, Structural Biology, 2021)

Biological target: T1, CARDO-RJ3 (ferredoxin reductase component of carbazole 1,9a-dioxygenase) (Janthinobacterium sp. J3, UniProt Q84II0)
T1 construct: gene carAd; full length, 329 residues, N-terminal His tag kept, expressed in E. coli (plasmid pEJ3NAd for the SeMet protein), monomer in solution; contains plant-type [2Fe-2S] cluster
T1 sequence (Q84II0 1-329): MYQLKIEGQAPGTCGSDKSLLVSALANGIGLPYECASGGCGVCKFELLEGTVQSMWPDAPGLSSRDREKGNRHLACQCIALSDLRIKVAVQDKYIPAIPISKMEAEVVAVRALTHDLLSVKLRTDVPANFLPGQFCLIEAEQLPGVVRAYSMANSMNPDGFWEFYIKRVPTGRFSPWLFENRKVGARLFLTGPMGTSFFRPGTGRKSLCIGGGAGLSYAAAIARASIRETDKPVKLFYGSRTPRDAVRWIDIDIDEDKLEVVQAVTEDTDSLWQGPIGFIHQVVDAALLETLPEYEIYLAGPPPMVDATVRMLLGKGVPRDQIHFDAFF
Assay: X-ray crystallography, […] A (type I crystal)
Conditions: FAD-binding domain site; Ser151, Tyr165, Lys167, Ser217 hydrogen bonds; Phe135 and Phe328 stacking; [2Fe-2S] cluster present; no NAD(P)H

**Q.** For `Cc1cc2nc3c(=O)[nH]c(=O)nc-3n(C[C@H](O)[C@H](O)[C@H](O)COP(=O)(O)OP(=O)(O)OC[C@H]3O[C@@H](n4cnc5c(N)ncnc54)[C@H](O)[C@@H]3O)c2cc1C` [FAD], which “X-ray crystallography, 2.6 A (type I crystal)” value is on record?
**A.** The value was “The type I structure contained the [2Fe-2S] cluster and FAD”.
